Reference: patent US4607114A, “Novel platinum complexes” (Nippon Kayaku Kabushiki Kaisha, priority 1983, dated 1986)
Like-named read-outs stand apart in the source and are kept apart here.

Key:
mouse leukemia L-1210 = assay: Antitumor activity on mouse leukemia L-1210 (T/C percentage of survival); type: in vivo; details: i.p. once a day for 5 days, female CDF1 mouse
Procedure: (2) Test for antitumor activity on mouse leukemia L-1210.
Into 6-weeks-old female CDF1 mouse were inoculated 1×10^5 L-1210 cells, and each drug was administered intraperitoneally once a day for 5 consecutive days, starting 24 hours after the inoculation. Physiological saline was administered to a control group. From the average survival periods of the drug-treated group and the control group (abbreviated as T and C, respectively), T/C percentage (T/C×100) was determined.

[1] = background statement; cited from earlier work
[2] = test system: mouse leukemia L-1210 cells; assay: Inhibitory activity on multiplication of mouse leukemia L-1210 initially cultured cells; type: cell-based; details: 48 hours, 37° C., RPMI 1640 with 10% bovine fetal serum
Procedure: (1) Test for inhibitory activity on multiplication of mouse leukemia L-1210 initially cultured cells.
Mouse leukemia L-1210 cells collected from the abdominal cavities of DBA/2 mouse were incubated in a 5% CO2 incubator at 37° C. for 48 hours by using a RPMI 1640 medium containing 10% of bovine fetal serum and 5 μM of 2-mercaptoethanol.

| Molecule | Antitumor effect shown by T/C percentage (mouse leukemia L-1210; 1 mg/kg) [%] | Antitumor effect shown by T/C percentage (mouse leukemia L-1210; 2 mg/kg) [%] | Antitumor effect shown by T/C percentage (mouse leukemia L-1210; 4 mg/kg) [%] | Antitumor effect shown by T/C percentage (mouse leukemia L-1210; 8 mg/kg) [%] | Solubility in water [mg/mL] | also measured |
| --- | --- | --- | --- | --- | --- | --- |
| NCC1(N)CCCC1.O=C([O-])C(=O)[O-].[Pt+2] [compound 21, cis-Oxalato-1-amino-1-aminomethylcyclopentane platinum] | 141 | 161 | 189 | 166 | – | Antitumor effect shown by T/C percentage (mouse leukemia L-1210; 0.5 mg/kg): 124% |
| CCC1C(=O)[O][Pt]2([NH]CC(CC)(CC)[NH]2)[O]C1=O (stereo not drawn) [compound 9, cis-2-Ethylmalonato-1,2-diamino-2-ethylbutane platinum] | – | – | – | – | 25 | – |
| CC1(C)C[NH][Pt]([Cl])([Cl])[NH]1 [compound 1, cis-Dichloro-1,2-diamino-2-methylpropane platinum] | 133 | 171 | 206 | 124 | 5 | Antitumor effect shown by T/C percentage (mouse leukemia L-1210; 16 mg/kg): 51% |
| N.N.[Cl][Pt][Cl] [cis-Platin, cis-dichlorodiammineplatinum] | – | – | – | – | – | carcinostatic effect [1]: very excellent |
| NCC1(N)CCCC1.[OH][Pt]([OH])([Cl])[Cl] [compound 19, cis-Dichloro-trans-dihydroxy-1-amino-1-aminomethylcyclopentane platinum] | – | – | 138 | 174 | – | IC50 [2]: 0.60 mg/L; Antitumor effect shown by T/C percentage (mouse leukemia L-1210; 16 mg/kg): 323%; Antitumor effect shown by T/C percentage (mouse leukemia L-1210; 32 mg/kg): 113%; Antitumor effect shown by T/C percentage (mouse leukemia L-1210; 64 mg/kg): 80% |
| CCC(N)(CC)CN.[OH][Pt]([OH])([Cl])[Cl] [compound 7, cis-Dichloro-trans-dihydroxy-1,2-diamino-2-ethylbutane platinum] | – | – | – | – | 13 | – |
| cis-bis(Pyruvato)-1-amino-1-aminomethylcyclohexane platinum [compound 16] | – | – | – | – | > 2 | – |
| NCC1(N)CCCC1.[Cl][Pt][Cl] [compound 18, cis-Dichloro-1-amino-1-aminomethylcyclopentane platinum] | 226 | 344 | 141 | 92 | – | IC50 [2]: 0.02 mg/L; Antitumor effect shown by T/C percentage (mouse leukemia L-1210; 0.5 mg/kg): 179% |
| CCC(C)(N)CN.[Cl][Pt][Cl] (stereo not drawn) [compound 4, cis-Dichloro-1,2-diamino-2-methylbutane platinum] | – | – | – | – | 3.5 | – |
| NCC1(N)CCCCC1.[Cl][Pt]([Cl])([Cl])[Cl] [compound 12, cis-Tetrachloro-1-amino-1-aminomethylcyclohexane platinum] | 200 | 259 | 224 | 95 | > 15 | Antitumor effect shown by T/C percentage (mouse leukemia L-1210; 0.5 mg/kg): 137% |
| CCC(N)(CC)CN.O=C([O-])C(=O)[O-].[Pt+2] [compound 6, cis-Oxalato-1,2-diamino-2-ethylbutane platinum] | 130 | 152 | 226 | 206 | – | Antitumor effect shown by T/C percentage (mouse leukemia L-1210; 16 mg/kg): 211% |
| O=C(CCl)[O][Pt]1([O]C(=O)CCl)[NH]CC2(CCCCC2)[NH]1 [compound 15, cis-bis(Chloroacetato)-1-amino-1-aminomethylcyclohexane platinum] | 175 | 200 | 299 | 130 | > 1.5 | Antitumor effect shown by T/C percentage (mouse leukemia L-1210; 0.5 mg/kg): 135% |
| [Cl][Pt]1([Cl])([Cl])([Cl])[NH]CC2(CCCC2)[NH]1 [compound 20, cis-Tetrachloro-1-amino-1-aminomethyl cyclopentane platinum] | – | – | – | – | 18 | – |
| CCC(N)(CC)CN.O=C([O-])C(O)C(=O)[O-].[Pt+2] [compound 10, cis-2-Hydroxymalonato-1,2-diamino-2-ethylbutane platinum] | – | – | – | – | 16 | – |
| CCC(C(=O)[O-])C(=O)[O-].NCC1(N)CCCCC1.[Pt+2] [compound 17, cis-2-Ethylmalonato-1-amino-1-aminomethyl cyclohexane platinum] | – | – | – | – | – | Solubility in water (Solubility in water): 8 mg/mL |
| cis-Dichloro-1,2-diamino-2-ethylbutane platinum [compound 5] | 181 | 291 | 199 | 82 | > 2.5 | Antitumor effect shown by T/C percentage (mouse leukemia L-1210; 0.5 mg/kg): 135% |
| NCC1(N)CCCCC1.[OH][Pt]([OH])([Cl])[Cl] [compound 11, cis-Dichloro-trans-dihydroxy-1-amino-1-aminomethylcyclohexane platinum] | – | – | 162 | 237 | > 2 | Antitumor effect shown by T/C percentage (mouse leukemia L-1210; 16 mg/kg): 275%; Antitumor effect shown by T/C percentage (mouse leukemia L-1210; 32 mg/kg): 108%; Antitumor effect shown by T/C percentage (mouse leukemia L-1210; 64 mg/kg): 67% |
| CC(C)(N)CN.[Cl][Pt]([Cl])([Cl])[Cl] [compound 3, cis-Tetrachloro-1,2-diamino-2-methylpropane platinum] | 127 | 139 | 162 | 154 | > 12 | Antitumor effect shown by T/C percentage (mouse leukemia L-1210; 16 mg/kg): 60% |
| CCC(N)(CC)CN.[Cl][Pt]([Cl])([Cl])[Cl] [compound 8, cis-Tetrachloro-1,2-diamino-2-ethylbutane platinum] | – | – | – | – | 5 | – |
| NCC1(N)CCCC1.O=C([O-])C(O)C(=O)[O-].[Pt+2] [compound 23, cis-2-Hydroxymalonato-1-amino-1-aminomethylcyclopentane platinum] | – | – | – | – | 5 | – |
| cis-Oxalato-1-amino-1-aminomethylcyclohexane platinum [compound 13] | 188 | 296 | 230 | 218 | > 2.5 | IC50 [2]: 0.021 mg/L; Antitumor effect shown by T/C percentage (mouse leukemia L-1210; 0.5 mg/kg): 146% |
